Measurements as given in publication PMC8536644, “Enigmatic mechanism of the N-vinylpyrrolidone hepatocarcinogenicity in the rat” (Archives of Toxicology, 2021).
Several values for one entry are separate records, joined by “and”; a condition that tells them apart may be missing. Identical values can stand only once. Like-named read-outs stand apart in the source and are kept apart here. Marks after values point to notes of the source that are not given here.

Legend:
[1] = system: mice; parameters: method as in Klimisch et al. [1997b]; details: inhalation, ref Klimisch et al. [1997b]; cited from earlier work
[2] = system: Sprague–Dawley rats; details: cited from earlier work; for Larynx squamous carcinoma, incidence / Liver hepatocellular carcinoma, incidence / Nasal cavity adenocarcinoma, incidence / Nasal cavity adenoma, incidence: 24 months inhalation, 60 animals, ref Klimisch et al. (1997a)
[3] = system: CYP2E1; assay: Lauric acid hydroxylase assay, 11-hydroxylation; format: in vivo, rat
Experimental: ^14C-labelled lauric acid (55 mCi/mmol) dissolved in ethanol (0.1 mCi/mL; total volume 2.5 mL) was purchased from American Radiolabeled Chemicals. 10 µL of this solution were diluted with methanol to 2 mL. The purity was checked by radio-HPLC. For the enzyme activity determinations 1.21 mL of this solution were treated in the thermomixer at 40 °C and 300 rpm until the ethanol was completely evaporated. The residue was taken up in 550 µL DMSO and checked on the incubation days by radio-HPLC and by liquid scintillation counting (LSC). To this end the just-mentioned solution in DMSO (nominally 8.14 MBq/mL) was 100-fold diluted with methanol, 50 µL of the resultant solution used for the HPLC analysis, 100 µL for the LSC analysis (488,400 dpm/100 µL).
For the determination of the lauric acid hydroxylase activity the liver microsomal fractions (prepared as described in the preceding chapter “Aryl hydrocarbon receptor”) derived from the NVP-treated (and untreated control) male rats were adjusted with TrisHCl pH 7.5–20 mg protein/mL. Obtained samples were measured in duplicates. Controls were heat-denatured samples (15 min at 99 °C in the thermomixer at 450 rpm), zero-time samples (reaction stopped immediately after adding substrate) and buffer controls (TrisHCl pH 7.5, no microsomal protein). 155 µL master mix (100 mM TrisHCl pH 7.5, 10 mM MgCl2, 2 mM 5’AMP-Na2, 5 mM G-6-P, 10 U G-6-P-DH) and 30 µL sample were preincubated for 3 min at 37 °C. Subsequently 10 µL of a 2-mM NADPH solution and 5 µL ^14C-lauric acid (8.14 MBq/mL) were added (lauric acid final concentration in the incubation 100 µM). The reaction was run for 20 min at 37 °C in the thermomixer (450 rpm) and stopped by the addition of 200 µL ice-cold acetone. Proteins were sedimented by centrifugation (6000 g, 10 min, 4 °C) and the supernatant used for the analysis by HPLC (system: Agilent 1260 infinity, column: EC250/4 Nucleosil, 120–5 C18, radio detector: Berthold FlowStar LB 513) under the following conditions: Injection volume 50 µL; eluent A: Methanol/acetic acid/water (600/5/400 mL), eluent B: Methanol; gradient: 0–10 min 100% eluent A, 10–20 min 0–100% eluent B, 20–30 min 100% eluent B, 30–40 min 100% eluent A; flow rate: 0.8 mL/min. In order to ascertain the assignment of the peaks to 11-hydroxylauric acid versus 12-hydroxylauric acid the retention times and mass spectra (HPLC-QTOF/MS) of a 12-hydroxylauric acid standard were compared with the lauric acid incubates (parameters of the HPLC-QTOF/MS system: (U)HPLC: Agilent 1200 und 1290; MS instrument: MS324/Agilent/S/N US10318001; radio detector: Raytest/Mirastar Masshunter Data Acquisition B.06.01; ionisation mode: ESI, negative mode).

[4] = system: CYP2B; assay: PROD assay, liver microsomes (CAR marker); format: in vivo, rat; details: male rats
Experimental: The alkoxyresorufin dealkylase (AROD) assays were based on the method by Burke et al. ([1994]).
The frozen livers and lungs of the NVP-treated male Wistar rats were thawed and washed with isotonic (0.9%) NaCl solution. The tissues were ice-cooled homogenized (1 g tissue: 3 mL 0.25 M saccharose in 1 mM disodium EDTA, pH 7.4) and centrifuged (9000 g, 15 min, 4 °C). The supernatant fraction was centrifuged (100 000 g, 60 min, 4 °C). The resulting supernatant fraction was used for the palmitoyl-CoA-oxidase assay described further down. The pellet was taken up in 150 mM aqueous KCl solution, recentrifuged (100 000 g, 60 min, 4 °C) and the pellet taken up in 1 mL/g liver or 0.5 mL/g lung resuspension buffer (1 mM GSH, 1 mM disodium EDTA, 4 mM MgCl2, 0.1 M KH2PO4, pH 7.5 and 4% glycerol). Aliquots were stored at − 80 °C.
For determination of the enzyme activities in triplicates, 85 µL master mix (100 mM TrisHCl pH 7.5, 2 mM 5’AMP, 5 mM G-6-P, 10 U G-6-P-DH, 10 mM Dicumarol, 10 mM MgCl2, either 2 µM EROD or 10 µM PROD or 5 µM BROD) was added to 10 µL microsomal fraction (1 mg protein/mL). The reaction was started by the addition of 5 µL 2 mM NADPH (dissolved in 100 mM TrisHCl pH 7.5) followed by incubation at 37 °C for 16 min. The activity was determined by measuring the increase of the fluorescence (excitation at 550 nm, emission at 585 nm) due to resorufin formation compared with resorufin standards, which had been prepared by dissolving tenfold concentrated solutions in DMSO, which were then diluted tenfold in 100 mM TrisHCl pH 7.5.

[5] = system: mice; parameters: method as in BASF [1993]; details: oral application, ref BASF [1993]; cited from earlier work
[6] = lauric acid 11-hydroxylation, liver microsomes, 20 ppm NVP, individual animals 19-24

C=CN1CCCC1=O [NVP, N-vinylpyrrolidone]
Concentration at which erythrocytes, hematocrit and hemoglobin were reduced [1]: 15 ppm
LOAEC, liver (increased gamma-glutamyl transpeptidase and glutathione) [1]: 10 ppm
LOAEC, nasal mucosa (inflammation, olfactory epithelium atrophy, basal cell hyperplasia) [1]: 5 ppm
Larynx squamous carcinoma, incidence ([2]; female, 5 ppm): 0
Liver hepatocellular carcinoma, incidence ([2]; female, 5 ppm): 3
Nasal cavity adenocarcinoma, incidence ([2]; female, 5 ppm): 0
Nasal cavity adenoma, incidence ([2]; female, 5 ppm): 2
Larynx squamous carcinoma, incidence ([2]; female, 10 ppm): 0
Liver hepatocellular carcinoma, incidence ([2]; female, 10 ppm): 6*
Nasal cavity adenocarcinoma, incidence ([2]; female, 10 ppm): 0
Nasal cavity adenoma, incidence ([2]; female, 10 ppm): 8**
Larynx squamous carcinoma, incidence ([2]; female, 20 ppm): 4
Liver hepatocellular carcinoma, incidence ([2]; female, 20 ppm): 26***
Nasal cavity adenocarcinoma, incidence ([2]; female, 20 ppm): 4*
Nasal cavity adenoma, incidence ([2]; female, 20 ppm): 14***
Larynx squamous carcinoma, incidence ([2]; male, 5 ppm): 0
Liver hepatocellular carcinoma, incidence ([2]; male, 5 ppm): 6*
Nasal cavity adenocarcinoma, incidence ([2]; male, 5 ppm): 0
Nasal cavity adenoma, incidence ([2]; male, 5 ppm): 9**
Larynx squamous carcinoma, incidence ([2]; male, 10 ppm): 0
Liver hepatocellular carcinoma, incidence ([2]; male, 10 ppm): 5*
Nasal cavity adenocarcinoma, incidence ([2]; male, 10 ppm): 4*
Nasal cavity adenoma, incidence ([2]; male, 10 ppm): 9***
Larynx squamous carcinoma, incidence ([2]; male, 20 ppm): 4
Liver hepatocellular carcinoma, incidence ([2]; male, 20 ppm): 17***
Nasal cavity adenocarcinoma, incidence ([2]; male, 20 ppm): 6*
Nasal cavity adenoma, incidence ([2]; male, 20 ppm): 11***
Lowest tested dose at which hepatocellular carcinomas were observed ([2]; rat, inhalation, ref Klimisch et al. [1997a]): 5 ppm
Lauric acid 11-hydroxylation activity ([3]; 20 ppm, male rat liver microsomes): 5149 ± 2010 peak area/min/mg protein
Increase of lauric acid 11-hydroxylation vs vehicle control ([3]; 20 ppm, statistically not significant): 1.1 fold
ω-1-hydroxylase (CYP2E1-activity), enzyme activity individual [3, 6]: 7458 peak surface/min/mg protein and 7295 peak surface/min/mg protein and 3522 peak surface/min/mg protein and 5008 peak surface/min/mg protein and 5216 peak surface/min/mg protein and 2393 peak surface/min/mg protein
ω-1-hydroxylase (CYP2E1-activity), peak surface [3, 6]: 9940 and 10,040 and 5283 and 7513 and 7824 and 3996
ω-1-hydroxylase (CYP2E1-activity), enzyme activity group (mean ± SD) ([3]; lauric acid 11-hydroxylation, liver microsomes, 20 ppm NVP, vehicle 4512 ± 1050): 5149 ± 2010 peak surface/min/mg protein
Liver microsomal PROD activity ([4]; 5 ppm): 12.4 ± 1.9 pmol/min/mg protein
Liver microsomal PROD activity ([4]; 10 ppm): 16.5 ± 4.3 pmol/min/mg protein
Liver microsomal PROD activity ([4]; 20 ppm): 10.0 ± 2.8 pmol/min/mg protein
Micronucleus test result [5]: negative
